Structures can show the parent of a compound that is named as a salt.
Tested on: ΔG/SEAP/HCV E1E2
Test: Effect of test substance on cell infection with HCV pseudotype virus (SEAP reporter assay in HepG2 cells)
Type: cell-based
Settings: Hepatitis C virus

O=c1c2c(c(-c3ccncc3)nn1-c1cc(N3CC[C@H](O)C3)ccc1C(F)(F)F)CCC2 [Example 95, 2-[5-((S)-3-hydroxy-pyrrolidin-1-yl)-2-trifluoromethyl-phenyl]-4-pyridin-4-yl-2,5,6,7-tetrahydro-cyclopenta[d]pyridazin-1-one]
IC50: 100 to 10000 nM

O=c1c2c(c(-c3ccccc3Cl)nn1-c1cc(N3CC[C@H](O)C3)ccc1C(F)(F)F)CCC2 [Example 96, 4-(2-chloro-phenyl)-2-[5-((S)-3-hydroxy-pyrrolidin-1-yl)-2-trifluoromethyl-phenyl]-2,5,6,7-tetrahydro-cyclopenta[d]pyridazin-1-one]
IC50: 100 to 10000 nM

COc1cc(OC)cc(-c2nn(-c3cc(NCC(=O)O)ccc3C(F)(F)F)c(=O)c3c2CCC3)c1 [Example 97, {3-[4-(3,5-dimethoxy-phenyl)-1-oxo-1,5,6,7-tetrahydro-cyclopenta[d]pyridazin-2-yl]-4-trifluoromethyl-phenylamino}-acetic acid]
IC50: < 100 nM

NC(=O)c1cccc(-c2nn(-c3cc(N4CC[C@H](O)C4)ccc3C(F)(F)F)c(=O)c3c2CCC3)c1 [Example 98, 3-{3-[5-((S)-3-hydroxy-pyrrolidin-1-yl)-2-trifluoromethyl-phenyl]-4-oxo-4,5,6,7-tetrahydro-3H-cyclopenta[d]pyridazin-1-yl}-benzamide]
IC50: 100 to 10000 nM

NC(=O)c1ccc(-c2nn(-c3cc(N4CC[C@H](O)C4)ccc3C(F)(F)F)c(=O)c3c2CCC3)cc1 [Example 99, 4-{3-[5-((S)-3-hydroxy-pyrrolidin-1-yl)-2-trifluoromethyl-phenyl]-4-oxo-4,5,6,7-tetrahydro-3H-cyclopenta[d]pyridazin-1-yl}-benzamide]
IC50: 100 to 10000 nM

CCCNc1ccc(C(F)(F)F)c(-n2nc(-c3cc(OC)cc(OC)c3)c3c(c2=O)CCC3)c1 [Example 100, 4-(3,5-dimethoxy-phenyl)-2-(5-propylamino-2-trifluoromethyl-phenyl)-2,5,6,7-tetrahydro-cyclopenta[d]pyridazin-1-one]
IC50: < 100 nM

CCCN(C)c1ccc(C(F)(F)F)c(-n2nc(-c3cc(OC)cc(OC)c3)c3c(c2=O)CCC3)c1 [Example 101, 4-(3,5-dimethoxy-phenyl)-2-[5-(methyl-propylamino)-2-trifluoromethyl-phenyl]-2,5,6,7-tetrahydro-cyclopenta[d]pyridazin-1-one]
IC50: 100 to 10000 nM

COc1cc(OC)cc(-c2nn(-c3cc(N4CC[C@H](O)C4)ccc3C(F)(F)F)c(=O)c3c2CCN3Cc2ccccc2)c1 [Example 102, 1-benzyl-4-(3,5-dimethoxy-phenyl)-6-[5-((S)-3-hydroxy-pyrrolidin-1-yl)-2-trifluoromethyl-phenyl]-1,2,3,6-tetrahydro-pyrrolo[2,3-d]pyridazin-7-one]
IC50: < 100 nM

O=c1c2c(c(-c3cccnc3)nn1-c1cc(N3CC[C@H](O)C3)ccc1C(F)(F)F)CCC2 [Example 103, 2-[5-((S)-3-hydroxy-pyrrolidin-1-yl)-2-trifluoromethyl-phenyl]-4-pyridin-3-yl-2,5,6,7-tetrahydro-cyclopenta[d]pyridazin-1-one]
IC50: 100 to 10000 nM

O=c1c2c(c(-c3ccccc3Br)nn1-c1cc(N3CC[C@H](O)C3)ccc1C(F)(F)F)CCC2 [Example 104, 4-(2-bromo-phenyl)-2-[5-((S)-3-hydroxy-pyrrolidin-1-yl)-2-trifluoromethyl-phenyl]-2,5,6,7-tetrahydro-cyclopenta[d]pyridazin-1-one]
IC50: 100 to 10000 nM

O=c1c2c(c(-c3ccccc3F)nn1-c1cc(N3CC[C@H](O)C3)ccc1C(F)(F)F)CCC2 [Example 105, 4-(2-fluoro-phenyl)-2-[5-((S)-3-hydroxy-pyrrolidin-1-yl)-2-trifluoromethyl-phenyl]-2,5,6,7-tetrahydro-cyclopenta[d]pyridazin-1-one]
IC50: 100 to 10000 nM

COc1cc(OC)cc(-c2nn(-c3ccc(Br)cc3C(F)(F)F)c(=O)c3c2CCC3)c1 [Example 106, 2-(4-bromo-2-trifluoromethyl-phenyl)-4-(3,5-dimethoxy-phenyl)-2,5,6,7-tetrahydro-cyclopenta[d]pyridazin-1-one]
IC50: 100 to 10000 nM

COc1cc(OC)cc(-c2nn(-c3ccccc3C(F)(F)F)c(=O)c3c2CCC3)c1 [Example 107, 4-(3,5-dimethoxy-phenyl)-2-(2-trifluoromethylphenyl)-2,5,6,7-tetrahydro-cyclopenta[d]pyridazin-1-one]
IC50: 100 to 10000 nM

COc1cc(OC)cc(-c2nn(-c3ccc(N(C)C)cc3C(F)(F)F)c(=O)c3c2CCC3)c1 [Example 108, 4-(3,5-dimethoxy-phenyl)-2-(4-dimethylamino-2-trifluoromethyl-phenyl)-2,5,6,7-tetrahydro-cyclopenta[d]pyridazin-1-one]
IC50: 100 to 10000 nM

COc1ccccc1-c1nn(-c2cc(N3CC[C@H](O)C3)ccc2C(F)(F)F)c(=O)c2c1CCC2 [Example 109, 2-[5-((S)-3-hydroxy-pyrrolidin-1-yl)-2-trifluoromethyl-phenyl]-4-(2-methoxy-phenyl)-2,5,6,7-tetrahydro-cyclopenta[d]pyridazin-1-one]
IC50: 100 to 10000 nM

O=c1c2c(c(-c3ccccn3)nn1-c1cc(N3CC[C@H](O)C3)ccc1C(F)(F)F)CCC2 [Example 110, 2-[5-((S)-3-hydroxy-pyrrolidin-1-yl)-2-trifluoromethyl-phenyl]-4-pyridin-2-yl-2,5,6,7-tetrahydro-cyclopenta[d]pyridazin-1-one]
IC50: 100 to 10000 nM

O=c1c2c(c(-c3ccccc3O)nn1-c1cc(N3CC[C@H](O)C3)ccc1C(F)(F)F)CCC2 [Example 111, 4-(2-hydroxy-phenyl)-2-[5-((S)-3-hydroxy-pyrrolidin-1-yl)-2-trifluoromethyl-phenyl]-2,5,6,7-tetrahydro-cyclopenta[d]pyridazin-1-one]
IC50: 100 to 10000 nM

CN(C)c1ccc(-c2nn(-c3cc(N4CC[C@H](O)C4)ccc3C(F)(F)F)c(=O)c3c2CCC3)cc1 [Example 112, 4-(4-dimethylamino-phenyl)-2-[5-((S)-3-hydroxy-pyrrolidin-1-yl)-2-trifluoromethyl-phenyl]-2,5,6,7-tetrahydro-cyclopenta[d]pyridazin-1-one]
IC50: < 100 nM

O=c1c2c(c(C3=CCCCC3)nn1-c1cc(N3CC[C@H](O)C3)ccc1C(F)(F)F)CCC2 [Example 113, 4-cyclohex-1-enyl-2-[5-((S)-3-hydroxy-pyrrolidin-1-yl)-2-trifluoromethyl-phenyl]-2,5,6,7-tetrahydro-cyclopenta[d]pyridazin-1-one]
IC50: 100 to 10000 nM

Cc1ccc(-c2nn(-c3cc(N4CC[C@H](O)C4)ccc3C(F)(F)F)c(=O)c3c2CCC3)cc1 [Example 114, 2-[5-((S)-3-hydroxy-pyrrolidin-1-yl)-2-trifluoromethyl-phenyl]-4-p-tolyl-2,5,6,7-tetrahydro-cyclopenta[d]pyridazin-1-one]
IC50: < 100 nM

COc1cc(OC)cc(-c2nn(-c3cc(NCCC(=O)OC(C)(C)C)ccc3C(F)(F)F)c(=O)c3c2CCC3)c1 [Example 115, 3-{3-[4-(3,5-dimethoxy-phenyl)-1-oxo-1,5,6,7-tetrahydro-cyclopenta[d]pyridazin-2-yl]-4-trifluoromethyl-phenylamino}-propionic acid tert-butyl ester]
IC50: < 100 nM

COc1cc(OC)cc(-c2nn(-c3cc(NCCN(C)C)ccc3C(F)(F)F)c(=O)c3c2CCC3)c1 [Example 116, 4-(3,5-dimethoxy-phenyl)-2-[5-(2-dimethylamino-ethylamino)-2-trifluoromethyl-phenyl]-2,5,6,7-tetrahydro-cyclopenta[d]pyridazin-1-one]
IC50: < 100 nM

COc1cc(OC)cc(-c2nn(-c3cc(NCCNC(C)=O)ccc3C(F)(F)F)c(=O)c3c2CCC3)c1 [Example 117, N-(2-{3-[4-(3,5-dimethoxy-phenyl)-1-oxo-1,5,6,7-tetrahydro-cyclopenta[d]pyridazin-2-yl]-4-trifluoromethyl-phenylamino}-ethyl)-acetamide]
IC50: < 100 nM

COc1cc(OC)cc(-c2nn(-c3cc(NCCNC(=O)OC(C)(C)C)ccc3C(F)(F)F)c(=O)c3c2CCC3)c1 [Example 118, (2-{3-[4-(3,5-dimethoxy-phenyl)-1-oxo-1,5,6,7-tetrahydro-cyclopenta[d]pyridazin-2-yl]-4-trifluoromethyl-phenylamino}-ethyl)-carbamic acid tert-butyl ester]
IC50: < 100 nM

COc1cc(OC)cc(-c2nn(-c3cc(NCCN)ccc3C(F)(F)F)c(=O)c3c2CCC3)c1 [Example 119, 2-[5-(2-amino-ethylamino)-2-trifluoromethylphenyl]-4-(3,5-dimethoxy-phenyl)-2,5,6,7-tetrahydro-cyclopenta[d]pyridazin-1-one hydrochloride]
IC50: < 100 nM

COc1cc(OC)cc(-c2nn(-c3cc(C#CCO)ccc3C(F)(F)F)c(=O)c3c2CCC3)c1 [Example 120, 4-(3,5-dimethoxy-phenyl)-2-[5-(3-hydroxy-prop-1-ynyl)-2-trifluoromethyl-phenyl]-2,5,6,7-tetrahydro-cyclopenta[d]pyridazin-1-one]
IC50: < 100 nM

COc1cc(OC)cc(-c2nn(-c3cc(CCCO)ccc3C(F)(F)F)c(=O)c3c2CCC3)c1 [Example 121, 4-(3,5-dimethoxy-phenyl)-2-[5-(3-hydroxy-propyl)-2-trifluoromethyl-phenyl]-2,5,6,7-tetrahydro-cyclopenta[d]pyridazin-1-one]
IC50: < 100 nM

COc1cc(OC)cc(-c2nn(-c3cc(NCCC(=O)O)ccc3C(F)(F)F)c(=O)c3c2CCC3)c1 [Example 122, 3-{3-[4-(3,5-dimethoxy-phenyl)-1-oxo-1,5,6,7-tetrahydro-cyclopenta[d]pyridazin-2-yl]-4-trifluoromethyl-phenylamino}-propionic acid]
IC50: < 100 nM

COc1cc(OC)cc(-c2nn(-c3cc(NCC(N)=O)ccc3C(F)(F)F)c(=O)c3c2CCC3)c1 [Example 123, 2-{3-[4-(3,5-dimethoxy-phenyl)-1-oxo-1,5,6,7-tetrahydro-cyclopenta[d]pyridazin-2-yl]-4-trifluoromethyl-phenylamino}-acetamide]
IC50: < 100 nM

CNC(=O)CNc1ccc(C(F)(F)F)c(-n2nc(-c3cc(OC)cc(OC)c3)c3c(c2=O)CCC3)c1 [Example 124, 2-{3-[4-(3,5-dimethoxy-phenyl)-1-oxo-1,5,6,7-tetrahydro-cyclopenta[d]pyridazin-2-yl]-4-trifluoromethyl-phenylamino}-N-methyl-acetamide]
IC50: < 100 nM
